The target of this assay is T1, EGFR (Homo sapiens, UniProt P00533).
T1 construct: The intracellular portion of EGFR started at nucleotide 2189 (corresponding to amino acid 667) and ended at the termination codon; made in house; host or cells: Sf9 insect cells (baculovirus)
In words: EGFR Kinase Assay. To be noted: test concentration of 2 μM (compounds without an IC50); read-out: EGFR percent inhibition. The assay is classed as biochemical. An excerpt: The EGFR kinase used was a fusion of Glutathione-S-Transferase (GST) and a PCR amplified intracellular portion of EGFR (NM_005228). The intracellular portion of EGFR started at nucleotide 2189 (corresponding to amino acid 667) and ended at the termination codon. The portion was PCR amplified with primers that added the lambda attB sequences to each end, recombined into an entry vector, then into a GST destination vector (as described in Gateway Technologies Manual by Invitrogen Corporation, Carlsbad, Calif.).
The destination vector was recombined in the DH10BAC strain of bacteria to produce a bacmid. The bacmid was transfected into Sf 9 cells and the supernatant containing the baculovirus was collected. The GSTEGFR protein was purified using large cultures of Sf 9 cells infected with stock virus. After an appropriate period of time, the cells were collected and lysed. The GSTEGFR was then purified from the lysate on Glutathione-Sepharose columns (as described by Amersham Biosciences, Buckinghamshire, United Kingdom).
The EGFR substrate was prepared by biotinylating polyGluTyr (128 mg) (Sigma, St. Louis, Mo.) in a 1×PBS buffer incubated together with a 12-fold molar excess of Sulfo-NHS-LC-Biotin on ice for at least 2 hrs. The free biotin was separated from the biotinylated polyGluTyr on a gel filtration column.
A mixture of a 10× kinase buffer (500 mM Tris at pH 8.0, 100 mM Magnesium Chloride and 1 mM Sodium Vanadate), DTT (1 mM final from 500 mM stock), ATP (5 μM final from 10 mM stock), biotinylated polyGluTyr (10 μg/μL stock), γ-^33P ATP (10 μCi/μL stock) and water was added to each well (90 μL/well) of a Streptavidin Flashplate (Perkin Elmer, Wellesley, M A).
Test compound in 100% DMSO (2 μL) was added to the appropriate wells. Diluted GSTEGFR (1:300 dilution in 50 mM Tris at pH 8.0 and 0.1% bovine serum albumin) (10 μL) was added to the wells to initiate the reactions.
The plates were incubated at 30° C. for 1 hr with shaking. The reacted contents were removed and the plates were sequentially washed three times with a 1×PBS stop buffer (300 μL without Magnesium and Calcium) and 100 mM EDTA. After the final wash, the same stop buffer (200 μL) was added to the wells. The plates were then sealed and read on the TopCount scintillation counter.
Test compounds were assayed in triplicate at 16 concentrations at half-log dilutions starting at 200 uM. A maximum and minimum signal for the assay was determined on each plate. The percent inhibition of a test compound was calculated according to the formula
For a series of test concentrations, the IC50 was derived by graphing percent inhibition against the log of the concentrations tested for a given compound. For those compounds without an IC50, the percent inhibition results are shown at a test concentration of 2 μM.

The structures appear in SMILES notation.

The values below come from US20080108611A1, “SUBSTITUTED THIENOPYRIMIDINE KINASE INHIBITORS” (priority 2006, published 2008).

T1 sequence (P00533 669-1210 limits assumed): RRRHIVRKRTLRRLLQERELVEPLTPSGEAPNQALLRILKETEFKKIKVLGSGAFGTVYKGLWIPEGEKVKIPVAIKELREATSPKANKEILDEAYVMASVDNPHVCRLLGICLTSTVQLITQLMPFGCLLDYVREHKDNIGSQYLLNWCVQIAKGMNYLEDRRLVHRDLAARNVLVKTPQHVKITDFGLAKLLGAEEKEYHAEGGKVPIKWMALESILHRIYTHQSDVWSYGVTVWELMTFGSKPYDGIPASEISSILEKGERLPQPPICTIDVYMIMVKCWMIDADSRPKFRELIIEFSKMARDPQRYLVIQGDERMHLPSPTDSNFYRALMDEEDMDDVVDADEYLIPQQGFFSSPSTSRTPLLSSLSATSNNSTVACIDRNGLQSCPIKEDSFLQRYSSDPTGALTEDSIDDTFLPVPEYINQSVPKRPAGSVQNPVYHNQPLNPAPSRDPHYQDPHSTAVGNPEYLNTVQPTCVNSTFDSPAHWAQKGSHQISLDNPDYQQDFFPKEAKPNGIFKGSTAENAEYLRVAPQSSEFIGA

A word on the inhibition: it is the share of the control response that was lost under treatment. Consider `Cc1cc2c(F)c(Oc3ncnc4sc(C(=O)NCCN5CCOCC5)c(C)c34)ccc2[nH]1` [Cpd 19, 4-(4-fluoro-2-methyl-1H-indol-5-yloxy)-5-methyl-thieno[2,3-d]pyrimidine-6-carboxylic acid (2-morpholin-4-yl-ethyl)-amide], for which the inhibition at 2 µM is 10%.
